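Assay format: 96-well plates, 48-hour exposure. GI50 = concentration required for 50% inhibition of growth.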 Calls of active or inactive are those of the source. Cut-off read from the data, not from the text of the source: active = GI50 up to about 1.1 µM and inactive = higher.
Tests used:
Test in all cases: NCI tumour cell line growth inhibition, 48 h
[1] = test system: MDA-MB-231
[2] = test system: U-251
[3] = test system: UO-31
[4] = test system: UACC-257
[5] = test system: OVCAR-3
[6] = test system: DU-145
[7] = test system: T47D
[8] = test system: SR
[9] = test system: K562
[10] = test system: A549
[11] = test system: KM12
[12] = test system: LOX IMVI
[13] = test system: MCF7
[14] = test system: RXF 393
[15] = test system: SNB-19
[16] = test system: EKVX
[17] = test system: SK-MEL-5
[18] = test system: SN12C
[19] = test system: UACC-62

| SMILES | GI50 [1] | GI50 [2] | GI50 [3] | GI50 [4] | GI50 [5] | GI50 [6] | GI50 [7] | GI50 [8] | GI50 [9] | GI50 [10] | GI50 [11] | GI50 [12] | GI50 [13] | GI50 [14] | GI50 [15] | GI50 [16] | GI50 [17] | GI50 [18] | GI50 [19] |
| --- | --- | --- | --- | --- | --- | --- | --- | --- | --- | --- | --- | --- | --- | --- | --- | --- | --- | --- | --- |
| CCOC(=O)c1ccc(Nc2nc3cc(C(F)(F)F)ccc3nc2C(=O)OCC)cc1 | 74.5 µM (inactive) | 19.7 µM (inactive) | > 100 µM (inactive) | > 100 µM (inactive) | 58.6 µM (inactive) | > 100 µM (inactive) | 69.3 µM (inactive) | > 100 µM (inactive) | 31 µM (inactive) | 39.6 µM (inactive) | > 100 µM (inactive) | 42.8 µM (inactive) | > 100 µM (inactive) | > 100 µM (inactive) | 22.6 µM (inactive) | > 100 µM (inactive) | 28.3 µM (inactive) | > 100 µM (inactive) | 66.5 µM (inactive) |
| Nc1ccn(C2OC(CO)C(O)C2(F)F)c(=O)n1 (stereo not given) | 0.828 µM (active) | 0.162 µM (active) | 0.0658 µM (active) | 0.312 µM (active) | 1.88 µM (inactive) | 0.179 µM (active) | 0.387 µM (active) | 0.158 µM (active) | 0.325 µM (active) | 0.055 µM (active) | 39.4 µM (inactive) | 0.157 µM (active) | 0.0847 µM (active) | 0.214 µM (active) | 0.129 µM (active) | 0.973 µM (active) | 0.436 µM (active) | 0.261 µM (active) | 0.127 µM (active) |
| Cc1cn(C(C)OCCN2C(=O)c3ccccc3C2=O)c(=O)[nH]c1=O (stereo not given) | > 100 µM (inactive) | > 100 µM (inactive) | > 100 µM (inactive) | > 100 µM (inactive) | > 100 µM (inactive) | > 100 µM (inactive) | > 100 µM (inactive) | > 100 µM (inactive) | > 100 µM (inactive) | > 100 µM (inactive) | > 100 µM (inactive) | > 100 µM (inactive) | > 100 µM (inactive) | > 100 µM (inactive) | > 100 µM (inactive) | > 100 µM (inactive) | > 100 µM (inactive) | > 100 µM (inactive) | > 100 µM (inactive) |
| COC1=C(C)C(=O)c2c(c(COC(N)=O)c3n2CC2C3N2C)C1=O (stereo not given) | 0.168 µM (active) | < 0.01 µM (active) | < 0.0145 µM (active) | < 0.0107 µM (active) | 0.0256 µM (active) | < 0.01 µM (active) | 0.0301 µM (active) | < 0.01 µM (active) | 0.051 µM (active) | < 0.01 µM (active) | < 0.0166 µM (active) | < 0.01 µM (active) | < 0.01 µM (active) | < 0.0331 µM (active) | < 0.0115 µM (active) | 0.14 µM (active) | 0.0209 µM (active) | 0.0132 µM (active) | < 0.0114 µM (active) |
| OCC1OC(n2cnc3cccnc32)CC1O (stereo not given) | > 100 µM (inactive) | > 100 µM (inactive) | > 100 µM (inactive) | > 100 µM (inactive) | > 100 µM (inactive) | > 100 µM (inactive) | > 100 µM (inactive) | > 100 µM (inactive) | > 100 µM (inactive) | > 100 µM (inactive) | > 100 µM (inactive) | > 100 µM (inactive) | > 100 µM (inactive) | > 100 µM (inactive) | > 100 µM (inactive) | > 100 µM (inactive) | > 100 µM (inactive) | > 100 µM (inactive) | > 100 µM (inactive) |

From ChEMBL document CHEMBL1201862, “PubChem BioAssay data set” (2004)
